By pIC50 is commonly meant the negative decadic logarithm of the IC50, by convention in mol/L. The low end stands for a high IC50, the high end for a low IC50.

The results in this text go back to patent US20140120083A1, “TREATMENT OF CANCERS USING PI3 KINASE ISOFORM MODULATORS” (INFINITY PHARMACEUTICALS, INC., priority 2012, published 2014).

Structures are written as SMILES. pIC50: −log10 of the molar value.

Common to all, as to assay type: biochemical
The target of one experiment is T1, PI3K γ (Homo sapiens, UniProt P48736).
T1 construct: purchased Sigma
The experiment in a line: In vitro IC50, PI3K γ. From the text:
(§1) An exemplary system is PI 3-Kinase (human) HTRF™ Assay from Upstate.

The target of the next experiment is T2, PI3K α (Homo sapiens, UniProt P42336).
T2 construct: purchased Upstate
The experiment in a line: In vitro IC50, PI3K α.
Description: as §1

The target of a further experiment is PI3K δ (Homo sapiens, UniProt O00329). Nature of the experiment: In vitro IC50, PI3K δ. On the set-up: purchased Upstate.
Description: as §1

Sequence of PI3K δ (O00329 whole entry): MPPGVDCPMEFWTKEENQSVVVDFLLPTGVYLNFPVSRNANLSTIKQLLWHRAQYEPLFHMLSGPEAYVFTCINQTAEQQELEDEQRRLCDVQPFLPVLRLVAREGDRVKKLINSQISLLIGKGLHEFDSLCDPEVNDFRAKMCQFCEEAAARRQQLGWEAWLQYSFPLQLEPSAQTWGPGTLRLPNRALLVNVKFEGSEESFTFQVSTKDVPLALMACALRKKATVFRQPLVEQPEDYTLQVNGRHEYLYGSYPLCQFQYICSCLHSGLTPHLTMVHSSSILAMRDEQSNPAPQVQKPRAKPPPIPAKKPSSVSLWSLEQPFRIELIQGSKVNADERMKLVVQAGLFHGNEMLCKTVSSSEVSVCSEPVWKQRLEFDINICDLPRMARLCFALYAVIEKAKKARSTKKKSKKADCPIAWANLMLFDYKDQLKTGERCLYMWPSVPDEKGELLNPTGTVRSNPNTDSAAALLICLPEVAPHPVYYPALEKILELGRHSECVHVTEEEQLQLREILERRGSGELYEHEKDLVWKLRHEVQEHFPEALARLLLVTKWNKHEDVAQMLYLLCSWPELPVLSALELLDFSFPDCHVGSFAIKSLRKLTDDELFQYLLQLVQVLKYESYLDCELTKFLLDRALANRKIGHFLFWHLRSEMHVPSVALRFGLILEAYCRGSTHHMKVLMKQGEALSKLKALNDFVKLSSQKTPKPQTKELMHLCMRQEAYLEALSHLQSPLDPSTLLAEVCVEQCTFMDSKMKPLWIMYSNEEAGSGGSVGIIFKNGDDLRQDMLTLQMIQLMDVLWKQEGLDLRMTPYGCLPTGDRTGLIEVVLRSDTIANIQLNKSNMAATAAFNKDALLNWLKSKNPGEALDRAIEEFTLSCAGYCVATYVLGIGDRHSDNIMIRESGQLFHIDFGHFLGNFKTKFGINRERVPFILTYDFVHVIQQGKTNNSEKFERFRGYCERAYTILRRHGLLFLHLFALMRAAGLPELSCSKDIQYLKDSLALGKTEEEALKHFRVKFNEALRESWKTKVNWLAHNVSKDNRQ
Sequence of PI3K δ (P27986 whole entry partner): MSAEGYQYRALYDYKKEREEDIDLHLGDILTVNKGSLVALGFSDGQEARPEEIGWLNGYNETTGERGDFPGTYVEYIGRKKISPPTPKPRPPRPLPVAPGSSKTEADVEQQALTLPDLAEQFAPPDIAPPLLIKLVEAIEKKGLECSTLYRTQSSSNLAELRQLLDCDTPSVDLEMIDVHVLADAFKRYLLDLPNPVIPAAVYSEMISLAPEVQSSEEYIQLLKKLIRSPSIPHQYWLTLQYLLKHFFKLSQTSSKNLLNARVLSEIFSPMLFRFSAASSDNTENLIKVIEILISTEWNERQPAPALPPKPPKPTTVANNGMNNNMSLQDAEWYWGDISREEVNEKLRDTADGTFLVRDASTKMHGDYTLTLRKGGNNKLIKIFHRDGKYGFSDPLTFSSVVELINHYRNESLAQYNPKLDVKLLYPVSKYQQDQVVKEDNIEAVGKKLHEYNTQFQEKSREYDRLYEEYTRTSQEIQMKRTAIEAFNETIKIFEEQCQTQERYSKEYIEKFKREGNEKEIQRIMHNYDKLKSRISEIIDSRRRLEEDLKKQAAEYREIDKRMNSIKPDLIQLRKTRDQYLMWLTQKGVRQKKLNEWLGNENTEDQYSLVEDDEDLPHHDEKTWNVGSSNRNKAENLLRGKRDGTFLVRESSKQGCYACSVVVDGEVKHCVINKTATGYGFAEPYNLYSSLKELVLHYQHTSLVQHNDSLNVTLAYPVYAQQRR
T1 sequence (P48736 whole entry): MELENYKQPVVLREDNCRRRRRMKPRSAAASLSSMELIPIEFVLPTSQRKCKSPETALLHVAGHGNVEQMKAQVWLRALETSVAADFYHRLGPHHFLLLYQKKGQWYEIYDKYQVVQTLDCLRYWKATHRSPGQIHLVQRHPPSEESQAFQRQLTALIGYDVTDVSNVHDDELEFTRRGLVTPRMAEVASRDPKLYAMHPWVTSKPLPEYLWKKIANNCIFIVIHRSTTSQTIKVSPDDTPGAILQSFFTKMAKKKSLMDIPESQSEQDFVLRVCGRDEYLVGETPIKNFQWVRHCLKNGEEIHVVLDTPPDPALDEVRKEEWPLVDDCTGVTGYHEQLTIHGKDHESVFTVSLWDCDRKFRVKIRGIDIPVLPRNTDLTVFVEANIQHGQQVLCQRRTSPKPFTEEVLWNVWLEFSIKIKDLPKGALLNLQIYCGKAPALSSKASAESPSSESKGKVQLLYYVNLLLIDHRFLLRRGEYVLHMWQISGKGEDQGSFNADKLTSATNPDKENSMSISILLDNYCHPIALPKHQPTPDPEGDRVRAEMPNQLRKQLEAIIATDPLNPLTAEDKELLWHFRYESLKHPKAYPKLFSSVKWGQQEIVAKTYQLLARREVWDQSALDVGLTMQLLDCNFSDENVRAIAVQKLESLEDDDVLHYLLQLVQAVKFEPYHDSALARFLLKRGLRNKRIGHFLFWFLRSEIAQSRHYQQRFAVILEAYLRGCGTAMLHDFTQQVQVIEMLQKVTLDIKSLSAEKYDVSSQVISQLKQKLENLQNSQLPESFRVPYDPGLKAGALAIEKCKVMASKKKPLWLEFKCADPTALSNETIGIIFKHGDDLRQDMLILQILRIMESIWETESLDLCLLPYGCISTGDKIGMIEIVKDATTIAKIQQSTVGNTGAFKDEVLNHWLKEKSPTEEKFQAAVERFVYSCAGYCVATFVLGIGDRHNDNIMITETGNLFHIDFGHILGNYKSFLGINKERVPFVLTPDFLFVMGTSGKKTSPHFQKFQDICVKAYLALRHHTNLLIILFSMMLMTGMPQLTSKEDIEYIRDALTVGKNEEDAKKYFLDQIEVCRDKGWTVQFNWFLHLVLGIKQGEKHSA
T2 sequence (P42336 whole entry): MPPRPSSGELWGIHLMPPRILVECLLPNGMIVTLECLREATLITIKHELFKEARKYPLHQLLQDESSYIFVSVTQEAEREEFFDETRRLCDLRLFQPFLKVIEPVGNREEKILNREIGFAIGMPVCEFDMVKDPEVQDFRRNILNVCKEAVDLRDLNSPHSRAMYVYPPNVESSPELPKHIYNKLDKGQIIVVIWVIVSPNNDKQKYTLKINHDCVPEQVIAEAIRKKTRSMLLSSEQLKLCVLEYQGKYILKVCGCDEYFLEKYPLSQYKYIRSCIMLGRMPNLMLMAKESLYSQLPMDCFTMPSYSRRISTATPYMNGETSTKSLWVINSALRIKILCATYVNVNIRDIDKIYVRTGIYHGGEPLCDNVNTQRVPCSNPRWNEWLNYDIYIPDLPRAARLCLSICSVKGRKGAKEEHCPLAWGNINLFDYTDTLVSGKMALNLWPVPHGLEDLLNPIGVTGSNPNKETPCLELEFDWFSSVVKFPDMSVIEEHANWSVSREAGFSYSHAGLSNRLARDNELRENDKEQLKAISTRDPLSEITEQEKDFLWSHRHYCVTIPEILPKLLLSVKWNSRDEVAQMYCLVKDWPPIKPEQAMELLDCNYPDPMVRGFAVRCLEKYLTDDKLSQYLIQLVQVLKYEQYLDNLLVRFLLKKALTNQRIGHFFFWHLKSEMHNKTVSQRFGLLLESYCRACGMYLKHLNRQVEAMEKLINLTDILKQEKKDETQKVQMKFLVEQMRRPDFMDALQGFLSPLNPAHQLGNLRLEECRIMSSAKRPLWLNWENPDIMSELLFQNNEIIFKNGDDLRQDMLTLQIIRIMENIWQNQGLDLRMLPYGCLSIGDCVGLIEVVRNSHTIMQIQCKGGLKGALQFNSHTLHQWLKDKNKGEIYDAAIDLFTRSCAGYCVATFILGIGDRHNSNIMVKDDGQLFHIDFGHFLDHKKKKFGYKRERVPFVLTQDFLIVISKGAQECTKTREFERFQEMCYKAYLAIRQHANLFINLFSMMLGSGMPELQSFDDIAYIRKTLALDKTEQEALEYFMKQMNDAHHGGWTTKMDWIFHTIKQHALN
T2 sequence (P27986 whole entry partner): as the sequence (P27986 whole entry partner) above

With `CC(=O)c1nn(Cc2cc3cccc(C)c3c(=O)n2-c2ccccc2)c2ncnc(N)c12` [Compound 319], the pIC50 on PI3K γ is over 5.00; on PI3K α, under 5.00; at PI3K δ, over 6.00.
As to `CNC(=O)c1cccc(-c2nn(Cc3cc4cccc(C)c4c(=O)n3-c3ccccc3C)c3ncnc(N)c23)c1` [Compound 120], the pIC50 at PI3K δ was over 5.00.
In the case of `Cc1cccnc1-n1c(Cn2nc(I)c3c(N)ncnc32)cc2ccccc2c1=O` [Compound 92], the negative-log IC50 (pIC50) against PI3K γ and against PI3K δ was over 5.00 each time.
At PI3K δ, `CC(C)n1c(Cn2nc(I)c3c(N)ncnc32)cc2ccccc2c1=O` [Compound 129] gave a negative logarithm of the IC50 (pIC50) of over 5.00.
For `Cc1cccc2cc([C@H](C)NC(=O)c3cnn4ccccc34)n(-c3ccccc3)c(=O)c12` [Compound 241], the pIC50 was over 5.00 at PI3K γ, under 5.00 against PI3K α and under 5.00 against PI3K δ.
`Nc1ncnc2c1c(I)nn2Cc1cc2cccc(F)c2c(=O)n1-c1ccccc1F` [Compound 132] gave a pIC50 at PI3K δ of over 5.00.
For the compound `Cc1ccccc1-n1c(Cn2nc(-c3ccc(CN)cc3)c3c(N)ncnc32)cc2cccc(C)c2c1=O` [Compound 118], the pIC50 on PI3K δ was over 5.00.
Regarding `Cc1cccc2cc(C(C)Nc3ncnc4[nH]cnc34)n(C3CCOCC3)c(=O)c12` (stereo not shown) [Compound 234], the pIC50 against PI3K γ was over 6.00; at PI3K δ, over 7.00.
For the compound `Cc1cccc2cc(Cn3nc(-c4cc(O)cc(F)c4)c4c(N)ncnc43)n(C)c(=O)c12` [Compound 125], the pIC50 on PI3K δ is over 7.00.
As for `Cc1ccccc1-n1c(Cn2nc(-c3ccc(O)c(F)c3)c3c(N)ncnc32)cc2cccc(C)c2c1=O` [Compound 30], the pIC50 on PI3K γ was over 7.00; against PI3K α, under 5.00; against PI3K δ, over 7.00.
On to `Cc1cccc2cc([C@H](C)Nc3c(C#N)cnc4ccccc34)n(-c3ccccc3)c(=O)c12` [Compound 246], for which the pIC50 against PI3K γ was over 5.00; on PI3K α, under 5.00; at PI3K δ it was over 5.00.
Take `CNC(=O)c1nn(Cc2cc3cccc(C)c3c(=O)n2-c2ccccc2)c2ncnc(N)c12` [Compound 309]: the figures for the pIC50 on PI3K γ, at PI3K α and against PI3K δ were over 5.00, under 5.00 and over 6.00, respectively.
Regarding `Cc1cccc2cc([C@H](C)Nc3ncnc4[nH]cnc34)n(-c3ccccc3)c(=O)c12` [Compound 196], the negative-log IC50 (pIC50) at PI3K γ and against PI3K δ was over 7.00 throughout.
For the compound `Cc1cccc2cc([C@H](C)Nc3ncnc4[nH]ncc34)n(-c3ccccc3)c(=O)c12` [Compound 258], the pIC50 was over 5.00 on PI3K γ, under 5.00 against PI3K α and over 6.00 at PI3K δ.
Take `Cc1ccccc1-n1c(Cn2nc(CO)c3c(N)ncnc32)cc2cccc(C)c2c1=O` [Compound 313]: the values for the pIC50 against PI3K γ, on PI3K α and at PI3K δ were over 5.00, under 5.00 and over 6.00, respectively.
`Cc1cccnc1-n1c(Cn2nc(Cl)c3c(N)ncnc32)cc2cccc(C)c2c1=O` [Compound 18]: the values for the pIC50 on PI3K γ, at PI3K α and against PI3K δ were under 5.00, under 5.00 and over 6.00, respectively.
As for `CNC(=O)c1nn(Cc2cc3cccc(C)c3c(=O)n2-c2ccccc2C)c2ncnc(N)c12` [Compound 305], the pIC50 against PI3K γ and against PI3K δ was over 5.00 each time.
Turning to `Cc1cccc2cc(C(C)Nc3ncnc4[nH]cnc34)n(CCN3CCCC3)c(=O)c12` (stereo not shown) [Compound 233], the negative-log IC50 (pIC50) against PI3K γ is under 5.00; against PI3K δ, over 7.00.
On to `Nc1ncnc2c1c(-c1cccc(O)c1)nn2Cc1cc2cccc(F)c2c(=O)n1-c1ccccc1F` [Compound 143], for which the pIC50 against PI3K δ is over 6.00.
For the compound `C=Cc1nn(Cc2cc3cccc(C)c3c(=O)n2-c2ccccc2)c2ncnc(N)c12` [Compound 301], the negative-log IC50 (pIC50) is over 6.00 against PI3K γ and over 7.00 at PI3K δ.
At PI3K δ, `CC(C)n1c(Cn2nc(-c3cc(O)cc(F)c3)c3c(N)ncnc32)cc2cccc(Cl)c2c1=O` [Compound 138] had a negative logarithm of the IC50 (pIC50) of over 7.00.
Regarding `COc1ccc(-c2nn(Cc3cc4cccc(C)c4c(=O)n3-c3ccccc3C)c3ncnc(N)c23)cc1` [Compound 45], the pIC50 on PI3K γ is over 7.00; against PI3K α, under 5.00; on PI3K δ, over 6.00.
Take `Cc1cccc2cc([C@H](C)Nc3ncnc4[nH]cnc34)n(C(C)C)c(=O)c12` [Compound 230]: the negative-log IC50 (pIC50) against PI3K γ and against PI3K δ was over 7.00 throughout.
Take `Cc1ccccc1-n1c(Cn2nc(C(=O)O)c3c(N)ncnc32)cc2cccc(C)c2c1=O` [Compound 297]: the pIC50 against PI3K δ was over 6.00.
For the compound `Cc1ccccc1-n1c(Cn2nc(-c3ccc(Cl)cc3)c3c(N)ncnc32)cc2cccc(C)c2c1=O` [Compound 49], the pIC50 is over 6.00 against PI3K γ, under 5.00 on PI3K α and over 6.00 against PI3K δ.
As to `Nc1ncnc2c1c(-c1cccc(O)c1)nn2Cc1cc2cccc(Cl)c2c(=O)n1C1CC1` [Compound 141], on PI3K δ, the negative-log IC50 (pIC50) was over 7.00.
For the compound `Cc1cccc2cc(Cn3nc(C(C)(C)O)c4c(N)ncnc43)n(-c3ccccc3)c(=O)c12` [Compound 318], the pIC50 at PI3K γ, on PI3K α and against PI3K δ was under 5.00 throughout.
`CNC(=O)Nc1nc2ccc(-c3nn(Cc4cc5cccc(C)c5c(=O)n4-c4ccccc4C)c4ncnc(N)c34)cc2s1` [Compound 148]: the pIC50 against PI3K γ, at PI3K α and against PI3K δ was over 7.00 each time.
In the case of `CC(Nc1ncnc2[nH]cnc12)c1cc2ccccc2c(=O)n1C1CCN(C)CC1` (stereo not shown) [Compound 225], the pIC50 on PI3K δ is over 6.00.
Consider `Cc1ccccc1-n1c(Cn2nc(Cl)c3c(N)ncnc32)cc2cccc(C)c2c1=O` [Compound 20], for which the negative-log IC50 (pIC50) at PI3K γ is over 6.00; against PI3K α it was under 5.00; on PI3K δ it was over 7.00.
As to `Cc1cccc2cc(Cn3nc(-c4ccc5nc(N)[nH]c5c4)c4c(N)ncnc43)n(-c3ccccc3)c(=O)c12` [Compound 302], the pIC50 against PI3K γ and at PI3K δ was over 7.00 each time.
At PI3K δ, `Cc1cccc2cc(Cn3nc(-c4cn[nH]c4)c4c(N)ncnc43)n(C3CCN(C)CC3)c(=O)c12` [Compound 226] showed a pIC50 of over 6.00.
As for `Cc1cccc2cc(C(C)Nc3ncnc4[nH]cnc34)n(C3CCCC3)c(=O)c12` (stereo not shown) [Compound 231], the pIC50 on PI3K γ and on PI3K δ was over 7.00 throughout.
For `Cc1cccc2cc([C@@H](C)Nc3ncnc4[nH]cnc34)n(-c3ccccc3)c(=O)c12` [Compound 195], the negative-log IC50 (pIC50) at PI3K γ and on PI3K δ was over 5.00 throughout.
For `CC(C)n1c(Cn2nc(-c3cccc(O)c3)c3c(N)ncnc32)cc2cccc(Cl)c2c1=O` [Compound 137], the pIC50 against PI3K δ is over 7.00.
In the case of `Nc1ncnc2c1c(I)nn2Cc1cc2cccc(Cl)c2c(=O)n1C1CC1` [Compound 139], the negative-log IC50 (pIC50) at PI3K δ is over 7.00.
Consider `CC(C)n1c(Cn2nc(I)c3c(N)ncnc32)cc2cccc(F)c2c1=O` [Compound 117], for which the pIC50 against PI3K δ was over 5.00.
The compound `CCn1c(Cn2nc(-c3cccc(O)c3)c3c(N)ncnc32)cc2cccc(C)c2c1=O` [Compound 126] had a negative logarithm of the IC50 (pIC50) at PI3K δ of over 7.00.
In the case of `CC(C)n1c(Cn2nc(-c3cccc(O)c3)c3c(N)ncnc32)cc2ccccc2c1=O` [Compound 135], the pIC50 against PI3K δ was over 7.00.
With `Cc1cccc2cc(C(C)Nc3ncnc4[nH]cnc34)n(CCN3CCOCC3)c(=O)c12` (stereo not shown) [Compound 232], the pIC50 on PI3K γ was over 5.00; on PI3K δ, over 7.00.
With `Cc1cccc2cc([C@@H](C)Nc3ncnc4[nH]cnc34)n(C3CC3)c(=O)c12` [Compound 199], the pIC50 against PI3K γ and against PI3K δ was under 5.00 in each case.
On PI3K δ, `Cc1cccc2cc(Cn3nc(-c4cc(O)cc(F)c4)c4c(N)ncnc43)n(C3CCOCC3)c(=O)c12` [Compound 128] gave a negative logarithm of the IC50 (pIC50) of over 7.00.
For the compound `Cc1cccc2cc(Cn3nc(C#CC4CC4)c4c(N)ncnc43)n(-c3ccccc3F)c(=O)c12` [Compound 4], the pIC50 against PI3K γ is under 5.00; against PI3K δ, over 6.00.
`Cc1cccc2cc(Cn3nc(-c4cccc(O)c4)c4c(N)ncnc43)n(C)c(=O)c12` [Compound 124] gave a pIC50 at PI3K δ of over 7.00.
On to `Cc1cccc2cc(Cn3nc(I)c4c(N)ncnc43)n(-c3ccccc3F)c(=O)c12` [Compound 2], for which the pIC50 against PI3K γ is over 6.00; on PI3K δ it was over 7.00.
Consider `Cc1cccc2cc(Cn3nc(-c4ccc5nc(N)oc5c4)c4c(N)ncnc43)n(-c3ccccc3)c(=O)c12` [Compound 236], for which the negative logarithm of the IC50 (pIC50) on PI3K γ and at PI3K δ was over 6.00 throughout.
On PI3K δ, `CC(C)n1c(Cn2nc(-c3cc(O)cc(F)c3)c3c(N)ncnc32)cc2ccccc2c1=O` [Compound 136] gave a negative-log IC50 (pIC50) of over 7.00.
As to `CCc1nn(Cc2cc3cccc(C)c3c(=O)n2-c2ccccc2)c2ncnc(N)c12` [Compound 303], the negative logarithm of the IC50 (pIC50) on PI3K γ is over 5.00; against PI3K δ, over 7.00.
For `Cc1cccc2cc(Cn3nc(C(N)=O)c4c(N)ncnc43)n(-c3ccccc3)c(=O)c12` [Compound 307], the figures for the pIC50 against PI3K γ and at PI3K δ were over 5.00 and over 6.00, respectively.
In the case of `Nc1ncnc2c1c(-c1cc(O)cc(F)c1)nn2Cc1cc2cccc(F)c2c(=O)n1-c1ccccc1F` [Compound 144], the pIC50 against PI3K δ is over 7.00.
As for `Cc1ccccc1-n1c(Cn2nc(C(F)F)c3c(N)ncnc32)cc2cccc(C)c2c1=O` [Compound 306], the pIC50 against PI3K γ and on PI3K δ was over 7.00 in each case.
Consider `Cc1cccc2cc(C(C)Nc3ncnc4[nH]cnc34)n(-c3cccc(F)c3)c(=O)c12` (stereo not shown) [Compound 229], for which the negative-log IC50 (pIC50) at PI3K γ is over 6.00; at PI3K δ, over 7.00.
For `Cc1cccc2cc(Cn3cnc4c(N)ncnc43)n(-c3ccccc3F)c(=O)c12` [Compound 1] the same measures were under 5.00 and over 5.00.
With `CC(C)n1c(Cn2nc(-c3cc(O)cc(F)c3)c3c(N)ncnc32)cc2cccc(F)c2c1=O` [Compound 134], at PI3K δ, the pIC50 was over 7.00.
For `Cc1cccc2cc(C(C)Nc3ncnc4[nH]cnc34)n(-c3ccccc3F)c(=O)c12` (stereo not shown) [Compound 203], the negative-log IC50 (pIC50) at PI3K α was over 5.00.
As for `Cc1ccccc1-n1c(Cn2nc(C#C[C@@H](C)O)c3c(N)ncnc32)cc2ccccc2c1=O` [Compound 32], the figures for the pIC50 against PI3K α and against PI3K δ were under 5.00 and over 6.00, respectively.
